Test results reported in ChEMBL document CHEMBL2202969, “Discovery and evolution of phenoxypiperidine hydroxyamide dual CCR3/H₁ antagonists. Part I” (Bioorg Med Chem Lett, 2012).

Experiments:
[1] = target: T1, C-C chemokine receptor type 3 (Homo sapiens, UniProt P51677); experiment: Displacement of [3H]-4-(2,4-dichloro-3-methylphenoxy)-l'-[4- (methylsulfonyl)benzoyl]-l,4'-bipiperidine from human recombinant CCR3 expressed in CHOK1 cells after 2 hrs by scintillation counting analysis; assay type: cell-based, CHO-K1
T1 sequence (P51677 whole entry): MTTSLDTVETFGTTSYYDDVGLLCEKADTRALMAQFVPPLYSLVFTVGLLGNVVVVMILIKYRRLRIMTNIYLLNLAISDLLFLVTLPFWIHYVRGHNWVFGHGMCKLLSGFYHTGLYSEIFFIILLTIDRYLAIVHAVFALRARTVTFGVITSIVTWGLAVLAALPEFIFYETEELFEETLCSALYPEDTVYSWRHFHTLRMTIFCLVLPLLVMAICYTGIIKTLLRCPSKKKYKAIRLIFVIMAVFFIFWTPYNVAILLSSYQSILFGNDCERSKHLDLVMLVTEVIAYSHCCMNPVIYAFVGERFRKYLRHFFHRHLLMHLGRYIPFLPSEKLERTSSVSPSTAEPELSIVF

[2] = target: T2, C-C chemokine receptor type 3 (Homo sapiens) (UniProt P51677); experiment: Displacement of [3H]-4-(2,4-dichloro-3-methylphenoxy)-l'-[4- (methylsulfonyl)benzoyl]-l,4'-bipiperidine from human recombinant CCR3 expressed in CHOK1 cells at 1 uM after 2 hrs by scintillation counting analysis; assay type: cell-based; settings: CHO-K1
T2 sequence (whole entry): T1 sequence (P51677 whole entry)

physchem = settings: octanol/water
Histamine H1 receptor [3] = target: T3, Histamine H1 receptor (Homo sapiens, UniProt P35367); experiment: Displacement of [3H]-pyrilamine from human histamine H1 receptor expressed in recombinant CHOK1 cells after 1 hr; assay type: cell-based, CHO-K1
in vitro [4] = settings: rat, hepatocytes
in vitro [5] = settings: rat
[6] = target: C-C chemokine receptor type 3 (Homo sapiens) (UniProt P51677); experiment: Displacement of radioligand from human CCR3 expressed in recombinant CHOK1 cells at 1 uM after 1 hr; settings: CHO-K1
in vitro [7] = settings: human
in vitro [8] = settings: human, hepatocytes
[9] = target: Voltage-gated inwardly rectifying potassium channel KCNH2 (Homo sapiens, UniProt Q12809)
[10] = Oral bioavailability in rat; assay type: ADME, organism-based; settings: in vivo
in vivo [11] = settings: rat
in vivo [12] = settings: rat; remark: listed apart in the source
in vivo [13] = settings: rat; remark: listed apart in the source
[14] = target: T4, C-C chemokine receptor type 1 (Homo sapiens, UniProt P32246); experiment: Antagonist activity at CCR1; assay type: functional
T4 sequence (P32246 whole entry): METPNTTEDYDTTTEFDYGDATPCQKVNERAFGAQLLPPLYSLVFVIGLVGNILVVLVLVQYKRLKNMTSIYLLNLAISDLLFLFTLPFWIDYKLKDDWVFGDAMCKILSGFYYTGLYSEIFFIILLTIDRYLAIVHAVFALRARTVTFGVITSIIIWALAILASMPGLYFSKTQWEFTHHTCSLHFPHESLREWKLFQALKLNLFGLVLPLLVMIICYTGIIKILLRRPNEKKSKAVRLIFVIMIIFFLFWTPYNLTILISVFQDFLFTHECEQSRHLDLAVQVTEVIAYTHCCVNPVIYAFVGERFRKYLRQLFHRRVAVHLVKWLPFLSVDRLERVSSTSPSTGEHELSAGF

Histamine H1 receptor [15] = target: T3, Histamine H1 receptor; experiment: Antagonist activity at histamine H1 receptor; assay type: functional

T3 sequence (P35367 whole entry): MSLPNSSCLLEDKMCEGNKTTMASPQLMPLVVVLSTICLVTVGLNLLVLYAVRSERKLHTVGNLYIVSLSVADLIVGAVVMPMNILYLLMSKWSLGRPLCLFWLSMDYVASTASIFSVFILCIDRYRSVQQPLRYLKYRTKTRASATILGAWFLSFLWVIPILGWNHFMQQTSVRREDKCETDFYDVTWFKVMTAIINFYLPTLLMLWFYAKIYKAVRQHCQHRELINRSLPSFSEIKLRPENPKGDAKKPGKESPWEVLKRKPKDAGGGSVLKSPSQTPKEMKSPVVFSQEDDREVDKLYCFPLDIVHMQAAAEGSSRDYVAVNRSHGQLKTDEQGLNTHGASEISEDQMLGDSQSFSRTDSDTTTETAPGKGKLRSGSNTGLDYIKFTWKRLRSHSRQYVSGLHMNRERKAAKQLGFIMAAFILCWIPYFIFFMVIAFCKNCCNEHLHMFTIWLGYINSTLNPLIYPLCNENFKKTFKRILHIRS
Chain of Voltage-gated inwardly rectifying potassium channel KCNH2 (Q12809 whole entry): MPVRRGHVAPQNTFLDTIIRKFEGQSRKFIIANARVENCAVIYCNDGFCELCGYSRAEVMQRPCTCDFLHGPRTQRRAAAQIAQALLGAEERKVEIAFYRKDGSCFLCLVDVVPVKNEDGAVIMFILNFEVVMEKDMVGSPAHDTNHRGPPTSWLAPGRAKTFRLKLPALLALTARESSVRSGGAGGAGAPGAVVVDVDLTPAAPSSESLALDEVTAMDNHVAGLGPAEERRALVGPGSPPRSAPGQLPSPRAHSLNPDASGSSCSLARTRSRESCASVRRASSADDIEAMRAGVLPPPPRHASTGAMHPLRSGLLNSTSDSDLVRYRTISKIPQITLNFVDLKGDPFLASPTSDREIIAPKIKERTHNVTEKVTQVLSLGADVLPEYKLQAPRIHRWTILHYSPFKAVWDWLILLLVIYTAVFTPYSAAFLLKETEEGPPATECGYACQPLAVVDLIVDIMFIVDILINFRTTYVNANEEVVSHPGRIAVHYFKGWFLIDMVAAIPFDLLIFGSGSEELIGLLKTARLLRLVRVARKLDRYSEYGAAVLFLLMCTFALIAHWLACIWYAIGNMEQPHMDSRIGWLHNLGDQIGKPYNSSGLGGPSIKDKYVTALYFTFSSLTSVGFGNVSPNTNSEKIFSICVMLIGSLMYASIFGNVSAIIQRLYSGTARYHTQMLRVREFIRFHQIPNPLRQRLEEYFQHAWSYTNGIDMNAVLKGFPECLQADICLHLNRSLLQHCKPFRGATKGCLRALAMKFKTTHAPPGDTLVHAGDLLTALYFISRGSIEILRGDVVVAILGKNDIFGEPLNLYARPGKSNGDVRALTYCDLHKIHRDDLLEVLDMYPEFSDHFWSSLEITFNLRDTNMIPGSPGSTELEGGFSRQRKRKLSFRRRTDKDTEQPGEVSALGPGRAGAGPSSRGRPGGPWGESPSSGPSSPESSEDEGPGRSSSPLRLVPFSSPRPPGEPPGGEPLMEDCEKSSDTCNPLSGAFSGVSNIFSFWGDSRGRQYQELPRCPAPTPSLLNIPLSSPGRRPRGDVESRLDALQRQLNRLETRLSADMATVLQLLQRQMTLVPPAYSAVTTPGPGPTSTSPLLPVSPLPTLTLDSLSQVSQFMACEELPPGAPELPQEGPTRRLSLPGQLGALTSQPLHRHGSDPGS

Compound	Ki [1]	inhibition [2]	logD (physchem)	Ki (Histamine H1 receptor [3])	microsomal CLint (in vitro [5]; liver microsomes)	inhibition [6]	microsomal CLint (in vitro [7]; liver microsomes)	IC50 [9]	also measured
O=C(NC[C@@H](O)CN1CCC(Oc2ccc(Cl)c(Cl)c2)CC1)c1cn2cc(F)ccc2n1	0.2 µM	> 70%	3.3	0.0158 µM	19 µL/min/mg	> 70%			hepatocyte CLint (in vitro [4]): 7 µL/min/1e6 cells
O=C(NC[C@@H](O)CN1CCC(Oc2ccc(Cl)c(Cl)c2)CC1)c1cnnc2ccccc12	0.0126 µM	> 70%	3.3	0.0126 µM		> 70%		6.31 µM	
N#Cc1cccc(OCCCN2CCC(Oc3ccc(Cl)c(Cl)c3)CC2)c1	0.794 µM	> 70%	> 4.5	0.0126 µM	129 µL/min/mg		3 µL/min/mg		
N#Cc1cccc(OC[C@@H](O)CCN2CCC(Oc3ccc(Cl)c(Cl)c3)CC2)c1	0.0316 µM	> 70%	> 4.5	0.000316 µM	22 µL/min/mg	> 70%	< 3 µL/min/mg		
N#Cc1cccc(C(=O)NC[C@@H](O)CN2CCC(Oc3ccc(Cl)c(Cl)c3)CC2)c1	0.02 µM	> 70%	3.5	0.02 µM		> 70%			microsomal CLint (in vitro [5]; microsomes): 25 µL/min/mg; microsomal CLint (in vitro [7]; microsomes): 4 µL/min/mg
N#Cc1cccc(S(=O)(=O)NC[C@@H](O)CN2CCC(Oc3ccc(Cl)c(Cl)c3)CC2)c1		> 70%			13 µL/min/mg		7 µL/min/mg		
CS(=O)(=O)c1ccc(C(=O)NC[C@@H](O)CN2CCC(Oc3ccc(Cl)c(Cl)c3)CC2)s1	0.251 µM	> 70%	2.9	0.1 µM	20 µL/min/mg	> 70%			hepatocyte CLint (in vitro [4]): 3 µL/min/1e6 cells
O[C@@H](CNC1CCN(Cc2ccc(Cl)c(Cl)c2)CC1)COc1ccc2ncsc2c1	0.158 µM	> 70%		0.316 µM		> 70%	< 3 µL/min/mg		
COc1cc(C(=O)NC[C@@H](O)CN2CCC(Oc3ccc(Cl)c(Cl)c3)CC2)ccc1N	0.00398 µM	> 70%	3.1	0.0631 µM	18 µL/min/mg	> 70%		0.251 µM	bioavailability [10]: 30%; half-life (in vivo [11]): 6.5 h; clearance (in vivo [12]): 3.36 L/h/kg; Vd (in vivo [13]): 25 L/kg; hepatocyte CLint (in vitro [4]): 6 µL/min/1e6 cells; hepatocyte CLint (in vitro [8]): < 2 µL/min/1e6 cells
N#Cc1cccc(OC[C@@H](O)CN2CCC(Oc3ccc(Cl)c(Cl)c3)CC2)c1	0.251 µM	> 70%	> 4.5	0.00316 µM	23 µL/min/mg		< 3 µL/min/mg		
O=C(NC[C@@H](O)CN1CCC(Oc2ccc(Cl)c(Cl)c2)CC1)c1c[nH]c(=O)c2ccccc12		> 70%							IC50 [14]: 5.01 µM
O=C(NC[C@@H](O)CN1CCC(Oc2ccc(Cl)c(Cl)c2)CC1)c1n[nH]c2ccccc12	0.00158 µM	> 70%	2.9	0.00794 µM		> 70%		0.251 µM	

Now from value to molecule, other results behind:

Ki [1]	inhibition [2]	logD (physchem)	Ki (Histamine H1 receptor [3])	microsomal CLint (in vitro [5]; liver microsomes)	inhibition [6]	microsomal CLint (in vitro [7]; liver microsomes)	Compound	IC50 [9]	also measured
0.00158 µM	> 70%	3.7					O=C(NC[C@@H](O)CN1CCC(Oc2ccc(Cl)c(Cl)c2)CC1)c1n[nH]c(=O)c2ccccc12		
0.126 µM	> 70%		0.501 µM		> 70%	< 3 µL/min/mg	N#Cc1ccc(OC[C@@H](O)CNC2CCN(Cc3ccc(Cl)c(Cl)c3)CC2)cc1		
0.0158 µM	> 70%	2.3	0.2 µM	8 µL/min/mg	> 70%		CS(=O)(=O)c1ccccc1C(=O)NC[C@@H](O)CN1CCC(Oc2ccc(Cl)c(Cl)c2)CC1		hepatocyte CLint (in vitro [4]): < 3 µL/min/1e6 cells; hepatocyte CLint (in vitro [8]): < 2 µL/min/1e6 cells
0.126 µM	> 70%	> 4.5	0.02 µM	49 µL/min/mg	> 70%	17 µL/min/mg	COc1cccc(SC[C@@H](O)CN2CCC(Oc3ccc(Cl)c(Cl)c3)CC2)c1		
0.00251 µM	> 70%	3.2			> 70%		CN(C[C@@H](O)CN1CCC(Oc2ccc(Cl)c(Cl)c2)CC1)C(=O)c1c[nH]c(=O)c2ccccc12	2 µM	
0.00251 µM	> 70%	3.9	0.0316 µM				O=C(NC[C@@H](O)CN1CCC(Oc2ccc(Cl)c(Cl)c2)CC1)c1c[nH]c2ccccc12	2 µM	
0.00794 µM	> 70%	3.5	0.00398 µM		> 70%		O=C(NC[C@@H](O)CN1CCC(Oc2ccc(Cl)c(Cl)c2)CC1)c1cc(=O)[nH]c2ccccc12	> 10 µM	
0.0794 µM	> 70%	1.2	1.26 µM	< 3 µL/min/mg			CS(=O)(=O)c1ccccc1C(=O)NCC(O)CNC1CCN(Cc2ccc(Cl)c(Cl)c2)CC1 (configuration not stated)		half-life (in vivo [11]): 2.3 h; clearance (in vivo [12]): 3.24 L/h/kg; Vd (in vivo [13]): 9 L/kg; hepatocyte CLint (in vitro [4]): 4 µL/min/1e6 cells
0.316 µM	> 70%	3.1	0.501 µM	23 µL/min/mg	> 70%		N#Cc1cccc(OC[C@@H](O)CNC2CCN(Cc3ccc(Cl)c(Cl)c3)CC2)c1		hepatocyte CLint (in vitro [4]): 7 µL/min/1e6 cells
0.00251 µM	> 70%	4.5					O=C(NC[C@@H](O)CN1CCC(Oc2ccc(Cl)c(Cl)c2)CC1)n1c(=O)[nH]c2ccccc21	0.501 µM	
0.1 µM							O=C(Nc1ccccc1OCC(O)CN1CCC(Oc2ccc(Cl)c(Cl)c2)CC1)C1CCC1 (configuration not stated)		IC50 (Histamine H1 receptor [15]): 5.01 µM; Ki [14]: 0.0158 µM
